Measured values from patent publication US9050267B2 (Novartis AG, priority 2011, dated 2015).
Counter-ions that a name gives are not always drawn. Like-named read-outs stand apart in the source and are kept apart here. Peptide text beside a SMILES is read from it.

Legend:
[1] = Aerodynamic particle size distribution, NEXT GENERATION IMPACTOR, passive blister dry powder inhaler; assay type: physicochemical; conditions: Lot A2; for % deviation in FPFd2Q<500: going from 35 L/min to 47 L/min
Protocol: The aerodynamic particle size distribution (aPSD) of the resulting aerosol dose was assessed using a NEXT GENERATION IMPACTOR™ at flow rates of 35 LPM and 47 LPM, corresponding to inhaler pressure drops of 4 kPa and 6 kPa, respectively. Note for present purposes flow rate and pressure drop are related via the inhaler flow resistance, and are used interchangeably. The mass distribution of each active ingredient on the cascade impactor stages was determined using an HPLC assay.
Total lung deposition as a function of variations in flow rate (O) is dependent not only on the aerodynamic particle size distribution of the aerosol, but also on the variations in inertial impaction which occur with changes in flow rate. In other words, for a given aPSD, the lung dose is expected to decrease as the flow rate increases. In order to achieve flow rate independence in-vivo, it is important to achieve a balance of these two opposing factors. A simple way to account for the dependence of lung dose on both variables, i.e. aerodynamic particle size cutoff diameter, d, and flow rate, Q, is to express the aPSD in terms of a fine particle fraction cut-off which incorporates both variables. Assuming oropharyngeal losses are determined largely by inertial impaction, the cut-off for lung dose may be expressed in terms of the impaction parameter, d^2Q. The selected cut-off d^2Q of 500 μm^2-L/min was chosen to represent a range of inhalers, based on the fact that the best correlate of lung deposition is found for the fraction of particles with an aerodynamic size of less than 3 μm, and a medium resistance inhaler is typically tested at a flow rate of about 60 L/min.

[2] = TURBUHALER, cited from earlier work
β2-adrenoceptor = β2-adrenoceptor (Homo sapiens, UniProt P07550); conditions: cited from earlier work
Sequence of β2-adrenoceptor (P07550 whole entry, species assumed): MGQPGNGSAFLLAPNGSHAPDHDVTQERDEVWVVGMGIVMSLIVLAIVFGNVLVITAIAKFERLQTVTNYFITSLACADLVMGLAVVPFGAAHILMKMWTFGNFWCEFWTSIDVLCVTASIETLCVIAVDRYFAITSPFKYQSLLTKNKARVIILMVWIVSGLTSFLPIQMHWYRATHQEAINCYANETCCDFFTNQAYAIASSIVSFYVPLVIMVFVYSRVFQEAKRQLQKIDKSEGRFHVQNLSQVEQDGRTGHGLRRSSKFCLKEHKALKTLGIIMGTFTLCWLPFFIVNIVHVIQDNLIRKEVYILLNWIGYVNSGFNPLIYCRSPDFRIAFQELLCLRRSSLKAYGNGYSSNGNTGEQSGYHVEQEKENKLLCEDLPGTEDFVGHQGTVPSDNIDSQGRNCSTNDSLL

[3] = cited from earlier work
[4] = pressure drop 4 kPa, flow rate 35 L/min
[5] = pressure drop 6 kPa, flow rate 47 L/min

C[N+]1(C)CCC(OC(=O)C(O)(c2ccccc2)C2CCCC2)C1.[Br-] (centres unmarked) [Glycopyrrolate, 3-[(cyclopentyl-hydroxyphenyl-acetyl)oxy]-1,1-dimethylpyrrolidinium bromide]
% deviation in FPFd2Q<500 [1]: 8.1%

CCc1cc2c(cc1CC)CC(NC[C@H](O)c1ccc(O)c3[nH]c(=O)ccc13)C2 [Indacaterol maleate, (R)-5-[2-(5,6-diethyl-indan-2-ylamino)-1-hydroxyethyl]-8-hydroxy-1H-quinolin-2-one]
FPF<3.3 μm [1, 4]: 57 % DD | MMAD [1, 4]: 2.8 μm | d^2Q < 500 [1, 4]: 65 | FPF<3.3 μm [1, 5]: 69 % DD | MMAD [1, 5]: 2.3 μm | d^2Q < 500 [1, 5]: 68

CCCC1O[C@@H]2C[C@H]3[C@@H]4CCC5=CC(=O)C=C[C@]5(C)[C@H]4[C@@H](O)C[C@]3(C)[C@]2(C(=O)CO)O1 (some centres unmarked) [budesonide]
total lung deposition ([2]; breathe more slowly (comfortable inhalation manoeuvre)): 15% | total lung deposition ([2]; breathe quickly (forceful inhalation manoeuvre)): 28%

CCc1cc2c(cc1CC)CC(NC[C@H](O)c1ccc(O)c3[nH]c(=O)ccc13)C2 [indacaterol, (R)-5-[2-(5,6-diethyl-indan-2-ylamino)-1-hydroxyethyl]-8-hydroxy-1H-quinolin-2-one]
% deviation in FPFd2Q<500 [1]: 4.6% | duration of action (β2-adrenoceptor): over 24 hours | onset of action (β2-adrenoceptor): about 10 minutes

O=C([O-])CC(O)(CC(=O)[O-])C(=O)[O-].[Na+].[Na+].[Na+] [sodium citrate]
Dry Tg ([3]; pH > 7): 170 (pH > 7) ° C.

CC(C)C[C@H](NC(=O)[C@H](CC(C)C)NC(=O)[C@@H](N)CC(C)C)C(=O)O [trileucine] (H-Leu-Leu-Leu-OH)
Dry Tg ([3]; pH dependent): 70 to 100 °C
